The source made the active and inactive calls. The rule behind the calls is not given here.
How the values were obtained:
[1] = biological target: Prostaglandin G/H synthase 1 (Homo sapiens) (UniProt P23219); assay: Inhibition of thrombin-induced platelet aggregation above 100 uM; assay type: functional
[2] = biological target: Prostaglandin G/H synthase 1 (Homo sapiens) (UniProt P23219); assay: Inhibition of thrombin-induced platelet aggregation below 100 uM; assay type: functional

Sequence of Prostaglandin G/H synthase 1 (Homo sapiens) (P23219 whole entry): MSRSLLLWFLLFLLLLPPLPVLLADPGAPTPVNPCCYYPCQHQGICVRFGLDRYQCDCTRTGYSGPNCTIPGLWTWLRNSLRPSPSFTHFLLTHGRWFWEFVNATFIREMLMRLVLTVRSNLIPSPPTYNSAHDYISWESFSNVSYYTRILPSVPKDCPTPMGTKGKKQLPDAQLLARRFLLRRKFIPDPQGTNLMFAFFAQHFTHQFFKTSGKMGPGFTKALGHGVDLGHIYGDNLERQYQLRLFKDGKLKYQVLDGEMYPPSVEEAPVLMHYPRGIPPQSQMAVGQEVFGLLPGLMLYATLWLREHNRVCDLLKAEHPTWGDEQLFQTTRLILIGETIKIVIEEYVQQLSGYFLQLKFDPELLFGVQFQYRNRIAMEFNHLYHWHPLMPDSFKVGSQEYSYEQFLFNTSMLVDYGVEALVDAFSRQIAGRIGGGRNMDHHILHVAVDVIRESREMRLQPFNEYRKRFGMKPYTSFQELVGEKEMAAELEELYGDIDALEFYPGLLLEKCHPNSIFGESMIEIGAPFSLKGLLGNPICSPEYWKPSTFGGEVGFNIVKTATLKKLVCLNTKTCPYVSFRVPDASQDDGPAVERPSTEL

Activity [1]: Active
Activity [2]: inactive
SMILES: O=C(/C=C/c1ccccc1)c1cnn(Cc2ccccc2)c(=O)c1
